From ChEMBL document CHEMBL3596180, “Evaluation of histone deacetylase inhibitors (HDACi) as therapeutic leads for human African trypanosomiasis (HAT)” (Bioorg Med Chem, 2015)
The source made the active and inactive calls. No cut-off for these calls is given here.

Legend:
[1] = system: Trypanosoma brucei brucei; assay: Antitrypanosomal activity against Trypanosoma brucei brucei 427 assessed as inhibition of parasite proliferation measured as ATP levels after 48 hrs by luciferase-based assay; assay type: functional, organism-based; conditions: Trypanosoma brucei, 427, 48 h
[2] = AUC in iv dosed human measured under phase 1/2 trial; assay type: ADME, organism-based; conditions: in vivo
[3] = AUC in iv dosed human measured under phase 1 trial; assay type: ADME, organism-based; conditions: in vivo
[4] = Cmax in iv dosed human measured under phase 1/2 trial; assay type: ADME, organism-based; set-up: route intravenous; conditions: in vivo
[5] = Tmax in iv dosed human measured under phase 1/2 trial; assay type: ADME, organism-based; conditions: in vivo
[6] = Half-life in iv dosed human measured under phase 1/2 trial; assay type: ADME, organism-based; conditions: in vivo
[7] = AUC in po dosed human measured under phase 1 trial; assay type: ADME, organism-based; conditions: in vivo
[8] = Half-life in po dosed human measured under phase 1 trial; assay type: ADME, organism-based; conditions: in vivo
[9] = Half-life in iv dosed human measured under phase 1 trial; assay type: ADME, organism-based; conditions: in vivo
[10] = Tmax in po dosed human measured under phase 1 trial; assay type: ADME, organism-based; conditions: in vivo
[11] = system: Trypanosoma brucei brucei; assay: Trypanocidal activity against Trypanosoma brucei brucei assessed as killing of parasite densities of 10^4 to 10^6 cells/ml at 180 uM after 4 hrs by clonal dilution method; assay type: functional, organism-based
[12] = system: Trypanosoma brucei brucei; assay: Trypanocidal activity against Trypanosoma brucei brucei assessed as killing of parasite densities of 10^4 to 10^6 cells/ml at 2 uM after […] by clonal dilution method; assay type: functional, organism-based
[13] = Tmax in iv dosed human measured under phase 1 trial; assay type: ADME, organism-based; conditions: in vivo
[14] = Cmax in iv dosed human measured under phase 1 trial; assay type: ADME, organism-based; set-up: route intravenous; conditions: in vivo
[15] = Cmax in po dosed human measured under phase 1 trial; assay type: ADME, organism-based; set-up: route oral; conditions: in vivo
[16] = Half-life in po dosed human measured under phase 2 trial; assay type: ADME, organism-based; conditions: in vivo
[17] = Cmax in po dosed human measured under phase 2 trial; assay type: ADME, organism-based; set-up: route oral; conditions: in vivo
[18] = Tmax in po dosed human measured under phase 2 trial; assay type: ADME, organism-based; conditions: in vivo
[19] = AUC in po dosed human measured under phase 2 trial; assay type: ADME, organism-based; conditions: in vivo
Homo sapiens = species: Homo sapiens; assay: Half-life in human; assay type: ADME, organism-based; conditions: in vivo
[20] = system: Trypanosoma brucei brucei; assay: Trypanocidal activity against Trypanosoma brucei brucei assessed as killing of parasite densities of 10^4 to 10^6 cells/ml at 2.2 uM by clonal dilution method; assay type: functional, organism-based
[21] = Cmax in human; assay type: ADME, organism-based; conditions: in vivo
Histone deacetylase 11 = biological target: T1, Histone deacetylase 11 (Homo sapiens, UniProt Q96DB2); assay: Inhibition of human HDAC11
T1 sequence (Q96DB2 whole entry): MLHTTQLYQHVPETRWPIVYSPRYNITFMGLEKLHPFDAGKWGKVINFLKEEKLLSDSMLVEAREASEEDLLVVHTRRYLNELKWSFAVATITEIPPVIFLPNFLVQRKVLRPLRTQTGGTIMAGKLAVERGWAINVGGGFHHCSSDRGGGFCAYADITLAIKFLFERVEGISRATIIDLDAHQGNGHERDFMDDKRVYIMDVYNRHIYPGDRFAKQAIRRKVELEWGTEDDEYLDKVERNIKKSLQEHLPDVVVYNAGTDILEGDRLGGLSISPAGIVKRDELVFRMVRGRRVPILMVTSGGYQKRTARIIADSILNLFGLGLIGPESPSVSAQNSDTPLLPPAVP

Histone deacetylase 5 = Histone deacetylase 5 (Homo sapiens, UniProt Q9UQL6); assay: Inhibition of human HDAC5
[22] = biological target: T2, Polyamine deacetylase HDAC10 (Homo sapiens, UniProt Q969S8); assay: Inhibition of human HDAC10
T2 sequence (Q969S8 whole entry): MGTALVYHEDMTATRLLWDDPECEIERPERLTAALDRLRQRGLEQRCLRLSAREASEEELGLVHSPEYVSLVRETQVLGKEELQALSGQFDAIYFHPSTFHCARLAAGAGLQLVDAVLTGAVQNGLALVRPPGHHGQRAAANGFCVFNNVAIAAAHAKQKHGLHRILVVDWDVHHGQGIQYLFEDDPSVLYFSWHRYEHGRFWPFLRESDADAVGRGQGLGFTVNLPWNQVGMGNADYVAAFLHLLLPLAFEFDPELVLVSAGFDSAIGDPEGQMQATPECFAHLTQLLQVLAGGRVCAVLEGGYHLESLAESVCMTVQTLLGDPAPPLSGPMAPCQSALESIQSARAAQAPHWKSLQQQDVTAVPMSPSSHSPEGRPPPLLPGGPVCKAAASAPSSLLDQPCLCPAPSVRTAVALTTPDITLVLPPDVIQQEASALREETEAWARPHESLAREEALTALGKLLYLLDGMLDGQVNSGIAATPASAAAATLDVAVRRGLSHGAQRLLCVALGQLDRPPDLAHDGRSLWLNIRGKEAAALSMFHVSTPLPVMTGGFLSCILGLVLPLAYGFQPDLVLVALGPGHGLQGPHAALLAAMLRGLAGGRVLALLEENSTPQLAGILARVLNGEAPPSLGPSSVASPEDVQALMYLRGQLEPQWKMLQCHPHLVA

Histone deacetylase 9 = Histone deacetylase 9 (Homo sapiens, UniProt Q9UKV0); assay: Inhibition of human HDAC9
Histone deacetylase 1 = Histone deacetylase 1 (Homo sapiens, UniProt Q13547); assay: Inhibition of human HDAC1
Histone deacetylase 7 = biological target: T3, Histone deacetylase 7 (Homo sapiens, UniProt Q8WUI4); assay: Inhibition of human HDAC7
T3 sequence (Q8WUI4 whole entry): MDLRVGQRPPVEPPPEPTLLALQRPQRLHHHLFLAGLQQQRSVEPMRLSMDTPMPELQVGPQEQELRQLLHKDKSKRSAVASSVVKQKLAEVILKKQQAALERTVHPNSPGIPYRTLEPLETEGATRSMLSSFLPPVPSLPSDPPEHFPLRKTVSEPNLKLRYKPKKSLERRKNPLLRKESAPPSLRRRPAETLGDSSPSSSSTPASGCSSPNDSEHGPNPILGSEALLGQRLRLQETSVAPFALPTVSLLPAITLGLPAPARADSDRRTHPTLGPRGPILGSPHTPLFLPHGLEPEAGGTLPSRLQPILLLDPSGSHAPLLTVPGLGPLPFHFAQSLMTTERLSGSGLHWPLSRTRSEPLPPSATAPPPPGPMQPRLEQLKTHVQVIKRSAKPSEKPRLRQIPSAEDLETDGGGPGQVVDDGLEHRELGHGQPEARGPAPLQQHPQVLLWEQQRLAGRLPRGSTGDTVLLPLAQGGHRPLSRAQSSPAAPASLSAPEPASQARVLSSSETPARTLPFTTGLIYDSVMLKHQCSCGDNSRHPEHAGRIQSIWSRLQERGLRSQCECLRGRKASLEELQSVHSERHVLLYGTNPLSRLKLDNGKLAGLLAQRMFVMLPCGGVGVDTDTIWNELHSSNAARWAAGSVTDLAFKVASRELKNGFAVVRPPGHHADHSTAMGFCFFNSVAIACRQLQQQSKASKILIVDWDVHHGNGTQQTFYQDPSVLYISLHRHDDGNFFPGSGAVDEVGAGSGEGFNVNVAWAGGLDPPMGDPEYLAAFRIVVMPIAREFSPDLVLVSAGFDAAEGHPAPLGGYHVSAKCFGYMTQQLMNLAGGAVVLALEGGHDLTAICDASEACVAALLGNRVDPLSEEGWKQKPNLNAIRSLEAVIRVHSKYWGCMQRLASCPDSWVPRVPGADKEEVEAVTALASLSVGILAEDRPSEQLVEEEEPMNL

Histone deacetylase 2 = Histone deacetylase 2 (Homo sapiens, UniProt Q92769); assay: Inhibition of human HDAC2
Histone deacetylase 2, sequence (Q92769 whole entry): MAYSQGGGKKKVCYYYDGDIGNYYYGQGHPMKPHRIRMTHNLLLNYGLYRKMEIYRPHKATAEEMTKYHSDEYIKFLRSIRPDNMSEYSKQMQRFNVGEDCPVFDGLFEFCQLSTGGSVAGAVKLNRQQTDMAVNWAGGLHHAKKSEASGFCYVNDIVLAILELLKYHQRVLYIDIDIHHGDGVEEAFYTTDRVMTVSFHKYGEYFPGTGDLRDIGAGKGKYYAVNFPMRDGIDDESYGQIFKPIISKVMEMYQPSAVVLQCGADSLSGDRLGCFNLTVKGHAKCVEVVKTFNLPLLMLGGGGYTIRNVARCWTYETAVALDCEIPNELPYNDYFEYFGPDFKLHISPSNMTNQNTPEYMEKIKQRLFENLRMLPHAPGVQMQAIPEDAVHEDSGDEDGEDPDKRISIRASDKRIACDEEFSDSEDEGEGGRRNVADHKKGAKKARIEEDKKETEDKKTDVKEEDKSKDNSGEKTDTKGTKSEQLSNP

Histone deacetylase 5, sequence (Q9UQL6 whole entry): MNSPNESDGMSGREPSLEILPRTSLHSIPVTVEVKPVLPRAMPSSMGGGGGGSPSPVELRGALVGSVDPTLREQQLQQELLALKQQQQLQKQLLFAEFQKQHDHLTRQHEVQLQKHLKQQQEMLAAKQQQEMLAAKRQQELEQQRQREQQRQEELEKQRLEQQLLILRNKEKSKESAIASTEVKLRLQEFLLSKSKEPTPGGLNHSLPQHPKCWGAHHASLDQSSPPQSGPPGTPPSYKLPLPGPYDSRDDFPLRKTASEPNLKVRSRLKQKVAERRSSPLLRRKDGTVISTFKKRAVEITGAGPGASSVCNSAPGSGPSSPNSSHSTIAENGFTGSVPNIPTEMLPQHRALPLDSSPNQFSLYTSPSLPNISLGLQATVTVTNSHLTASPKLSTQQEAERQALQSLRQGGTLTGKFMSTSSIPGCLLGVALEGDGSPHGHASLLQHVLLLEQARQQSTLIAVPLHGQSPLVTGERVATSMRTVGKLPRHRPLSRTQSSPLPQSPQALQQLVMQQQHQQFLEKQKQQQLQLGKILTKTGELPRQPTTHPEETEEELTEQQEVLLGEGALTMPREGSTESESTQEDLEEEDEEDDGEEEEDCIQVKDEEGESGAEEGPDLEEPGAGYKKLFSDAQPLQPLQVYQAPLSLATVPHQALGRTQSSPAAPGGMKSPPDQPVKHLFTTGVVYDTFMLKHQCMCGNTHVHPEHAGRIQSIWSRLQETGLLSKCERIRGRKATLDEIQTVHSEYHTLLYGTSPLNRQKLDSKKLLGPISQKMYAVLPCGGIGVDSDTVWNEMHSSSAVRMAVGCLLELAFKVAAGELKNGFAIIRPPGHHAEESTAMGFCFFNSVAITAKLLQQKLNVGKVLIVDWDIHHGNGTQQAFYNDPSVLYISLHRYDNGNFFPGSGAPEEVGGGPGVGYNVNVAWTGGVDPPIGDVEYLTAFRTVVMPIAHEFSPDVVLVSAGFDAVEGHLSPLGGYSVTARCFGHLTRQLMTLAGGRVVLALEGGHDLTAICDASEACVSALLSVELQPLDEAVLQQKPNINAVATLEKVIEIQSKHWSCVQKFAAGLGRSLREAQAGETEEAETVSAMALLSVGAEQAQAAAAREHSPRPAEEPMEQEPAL
Histone deacetylase 1, sequence (Q13547 whole entry): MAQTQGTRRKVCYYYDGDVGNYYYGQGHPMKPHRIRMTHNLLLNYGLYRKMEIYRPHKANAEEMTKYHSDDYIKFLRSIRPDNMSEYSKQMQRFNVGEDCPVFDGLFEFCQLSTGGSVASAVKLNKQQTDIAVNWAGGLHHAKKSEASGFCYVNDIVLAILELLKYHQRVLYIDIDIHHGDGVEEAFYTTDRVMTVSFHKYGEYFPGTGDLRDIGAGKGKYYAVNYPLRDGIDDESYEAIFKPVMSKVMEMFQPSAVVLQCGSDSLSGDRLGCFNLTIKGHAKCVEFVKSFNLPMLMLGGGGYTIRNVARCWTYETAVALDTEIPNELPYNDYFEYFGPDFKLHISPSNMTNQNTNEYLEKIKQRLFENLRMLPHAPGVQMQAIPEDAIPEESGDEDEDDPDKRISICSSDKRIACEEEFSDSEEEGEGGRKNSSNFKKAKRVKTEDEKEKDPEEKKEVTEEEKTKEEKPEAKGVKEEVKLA
Histone deacetylase 9, sequence (Q9UKV0 whole entry): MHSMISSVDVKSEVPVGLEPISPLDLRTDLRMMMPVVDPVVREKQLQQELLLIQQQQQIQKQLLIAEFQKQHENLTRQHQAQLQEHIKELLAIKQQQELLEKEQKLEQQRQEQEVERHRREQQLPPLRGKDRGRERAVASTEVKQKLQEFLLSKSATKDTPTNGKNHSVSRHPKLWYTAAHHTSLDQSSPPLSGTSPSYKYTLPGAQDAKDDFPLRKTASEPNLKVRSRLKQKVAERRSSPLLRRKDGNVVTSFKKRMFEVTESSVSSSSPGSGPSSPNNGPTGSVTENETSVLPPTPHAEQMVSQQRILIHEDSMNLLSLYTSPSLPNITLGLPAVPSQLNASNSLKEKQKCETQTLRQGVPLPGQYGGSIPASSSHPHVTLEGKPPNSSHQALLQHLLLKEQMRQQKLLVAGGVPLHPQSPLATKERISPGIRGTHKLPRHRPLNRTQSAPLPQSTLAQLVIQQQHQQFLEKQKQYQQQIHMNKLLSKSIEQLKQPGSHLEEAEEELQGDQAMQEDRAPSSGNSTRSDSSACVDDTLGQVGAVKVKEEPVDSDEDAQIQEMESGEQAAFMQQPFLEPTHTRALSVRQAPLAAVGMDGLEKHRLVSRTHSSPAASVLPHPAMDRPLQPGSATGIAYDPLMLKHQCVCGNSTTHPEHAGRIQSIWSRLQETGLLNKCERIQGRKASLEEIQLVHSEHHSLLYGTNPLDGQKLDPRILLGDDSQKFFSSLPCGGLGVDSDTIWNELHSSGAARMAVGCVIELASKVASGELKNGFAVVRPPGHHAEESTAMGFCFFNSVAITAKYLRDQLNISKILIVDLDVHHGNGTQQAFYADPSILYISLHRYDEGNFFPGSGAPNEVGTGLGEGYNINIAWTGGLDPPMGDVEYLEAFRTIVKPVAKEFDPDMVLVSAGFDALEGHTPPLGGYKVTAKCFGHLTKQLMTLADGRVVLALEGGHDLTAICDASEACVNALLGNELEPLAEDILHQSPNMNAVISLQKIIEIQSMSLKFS

CC(C)(CCc1ccccc1)C(=O)Nc1ccc(C(=O)NO)cc1
EC50 [1]: 6550 nM

O=C(Nc1ccccc1-c1cn2c(CN3CCNCC3)csc2n1)c1cnc2ccccc2n1
EC50 [1]: 892 nM

O=C(/C=C\c1cccc(C(=O)NO)c1)NO
EC50 [1]: 7000 nM

CN(C)Cc1c(C(=O)NCCOc2ccc(C(=O)NO)cc2)oc2ccccc12 [ABEXINOSTAT]
EC50 [1]: 8610 nM

O=C(/C=C/c1cccc(S(=O)(=O)Nc2ccccc2)c1)NO [BELINOSTAT]
AUC [2]: 47500 ng·h/mL
AUC [3]: 9990 ng·h/mL
Cmax [4]: 183000 nM
Tmax [5]: 0.45 h
half-life [6]: 3.49 h
EC50 [1]: 2150 nM
EC90 [1]: 4010 nM
AUC [7]: 2700 ng·h/mL
half-life [8]: 1.5 h
half-life [9]: 0.69 h
Tmax [10]: 1.9 h
Activity [11]: inactive
Activity [12]: inactive
Tmax [13]: 0 h
Cmax [14]: 101000 nM
Cmax [15]: 2140 nM

O=C(/C=C/c1ccc(CN(CCO)CCc2c[nH]c3ccccc23)cc1)NO [DACINOSTAT]
AUC [3]: 2310 ng·h/mL
EC50 [1]: 2600 nM
half-life [9]: 8.29 h
Tmax [13]: 2 h
Cmax [14]: 2170 nM

CCN(CC)Cc1ccc2cc(COC(=O)Nc3ccc(C(=O)NO)cc3)ccc2c1 [GIVINOSTAT]
EC50 [1]: 10900 nM
AUC [7]: 671 ng·h/mL
half-life [8]: 6 h
Tmax [10]: 2.1 h
Cmax [15]: 208 nM

O=C(/C=C/C#Cc1ccc(NS(=O)(=O)c2ccccc2)cc1)NO [OXAMFLATIN]
EC50 [1]: 4060 nM

Cc1[nH]c2ccccc2c1CCNCc1ccc(/C=C/C(=O)NO)cc1 [PANOBINOSTAT]
AUC [3]: 605 ng·h/mL
EC50 [1]: 1580 nM
EC90 [1]: 4860 nM
AUC [7]: 91.3 ng·h/mL
half-life [16]: 15 h
half-life [8]: 12.8 h
half-life [9]: 16 h
Cmax [17]: 191 nM
Tmax [10]: 1.5 h
Tmax [13]: 0.5 h
Tmax [18]: 1 h
Cmax [14]: 1410 nM
Cmax [15]: 31 nM
AUC [19]: 356 ng·h/mL

N=C(N)c1ccc(OCCCCCOc2ccc(C(=N)N)cc2)cc1 [PENTAMIDINE]
t1/2 (Homo sapiens): 265 h
Activity [20]: Active
Cmax [21]: 900 nM

CCCCc1nc2cc(/C=C/C(=O)NO)ccc2n1CCN(CC)CC [PRACINOSTAT]
Ki (Histone deacetylase 11): 43 nM
EC50 [1]: 9550 nM
AUC [7]: 1030 ng·h/mL
Cmax [15]: 497 nM

Cn1cc(CNCC2CCN(c3ncc(C(=O)NO)cn3)CC2)c2ccccc21 [QUISINOSTAT]
Ki (Histone deacetylase 5): 2.1 nM
EC50 [1]: 29 nM
AUC [7]: 9.77 ng·h/mL
Ki [22]: 0.05 nM
Tmax [10]: 4 h
Ki (Histone deacetylase 9): 3.8 nM
Cmax [15]: 3 nM

CC(/C=C/C(=O)NO)=C\[C@@H](C)C(=O)c1ccc(N(C)C)cc1 [TRICHOSTATIN]
EC50 [1]: 5000 nM

O=C(CCCCCCC(=O)Nc1ccc([C@H]2O[C@@H](CSc3nc(-c4ccccc4)c(-c4ccccc4)o3)C[C@@H](c3ccc(CO)cc3)O2)cc1)NO [TUBACIN]
Ki (Histone deacetylase 1): 326 nM
Ki (Histone deacetylase 5): 1920 nM
EC50 [1]: 3380 nM
Ki (Histone deacetylase 7): 5430 nM
Ki (Histone deacetylase 2): 1180 nM

CN1CCc2c(c3ccccc3n2Cc2ccc(C(=O)NO)cc2)C1 [TUBASTATIN A]
EC50 [1]: 2750 nM
